Patent US6900234B1, “Synergistic therapeutic compositions and methods” (Pfizer, Inc., priority 1990, dated 2005)

What was measured:
Male Hartley guinea pigs = test: Mean arterial pressure lowering (AOC-MAP) in conscious sodium-depleted guinea pigs after i.v. dosing; assay type: in vivo, guinea pig; design: unit not given here
Protocol: Male Hartley guinea pigs weighing between 250 and 300 g were obtained from Charles River Laboratories, Lakeview, N.J. The guinea pigs were allowed to acclimate to their environment for at least two weeks. Then, they were placed on a low sodium diet (Purina Modified Guinea Pig Chow, no sodium added) for 14 days and were given injections of furosemide (Lasix® 2 mg/kg, i.m.) on three non-consecutive days. At least 24 hours prior to experimentation, the animals were anesthetized with xylazine (Rompun®, 10 mg/kg, s.c.) and ketamine (Vetalar®, 80 mg/kg, i.m.) and, using aseptic technique, cannulae (PE-50) were implanted into the aorta via the right carotid artery for direct measurement of mean arterial pressure (MAP). Cannulae (PE-50) were also placed into the left jugular vein for intravenous compound administration. Both catheters were exteriorized at the intrascapular region of the animal's back and flushed with a heparinized dextrose solution. To prevent the formation of clots, each cannula was filled with heparin at a concentration of 1000 units/ml. After surgery, an antibacterial, trimethoprim/sulfamethoxazole (Di-Trim®, 30 mg/kg, s.c.), was given to the animals. The animals were allowed to recover with water and no-sodium chow administered ad libitum. On the day of the experiment, each guinea pig was given an additional injection of furosemide (6 mg/kg, i.m.) to accelerate sodium loss and was placed in,a sound-proof, ventilated box with one-way glass for observation. Mean arterial pressure was monitored with a Statham 23DB strain gauge pressure transducer previously calibrated using a mercury manometer. The arterial pressure waveform and derived heart rate were continuously recorded on a Grass Model 7D osciliograph. Arterial pressure waveform samples were obtained approximately every 20 seconds using an IBM PS/2 model 30 computer equipped with a custom algorithm designed to calculate mean arterial pressure from the integrated waveform. Values were obtained for a period of at least one hour prior to and 2 hours (usually 4 hours) after dosing. The test compounds were infused intravenously followed by a 250 μl flush with heparinized dextrose solution.
Dose response curves for the renin inhibitor (RI) (0.3 to 3.0 mg/kg, i.v.) and captopril (0.03 to 1.0 mg/kg, i.v.) were obtained (n=4 to 8) in order to quantitate baseline responses to each drug. In experiments where the renin inhibitor and captopril were co-administered, the renin inhibitor was given first immediately followed by captopril. Doses of renin inhibitor and angiotensin converting enzyme inhibitor, when given together, were chosen on the basis of causing submaximal hypotensive effects. Therefore, the contributory effect of each drug could be quantitated by integration and compared to the expected effect to determine whether additive or synergistic responses had occurred.
Employing the procedure described above, the changes in mean arterial pressure (ΔMAP) for the renin inhibitor (RI), the ACE inhibitor (captopril) and the renin inhibitor (RI), plus the ACE inhibitor (captopril) were obtained for various doses and are shown in Table I, below. The AOC-MAP is the area over the dose response curve for each dose calculated using the trapezoidal method.
The data in Table I were obtained by averaging the Δ MAP of all animals for each dose prior to calculating the AOC-MAP. When the data contained in Table I was reviewed for the purpose of calculating the AOC-MAP by averaging the area over the dose response curve for each animal per dose, it was discovered that the AOC-MAP for 0.5 mg/kg RI plus 0.05 mg/kg captopril inadvertently reflected the data based on only three of the six subject test animals. Shown below in Table II are the AOC-MAP data for the experiments reported in Table I, which data is now the result of determining the area over the dose response curve for each animal per dose and averaging the AOC-MAP, as well as determining the standard deviation. […]

[1] = reported in Oldham et al., J. Cardiovasc. Pharmacol. 6: 672-677 (1984); cited from earlier work
[2] = Table III, 0.30 mg/kg i.v., average of the area for each animal per dose
[3] = Table III, 1.0 mg/kg i.v., average of the area for each animal per dose
[4] = Table I, 1.0 mg/kg i.v., ΔMAP of all animals averaged per dose before calculating the area
[5] = Table II, 1.0 mg/kg i.v., average of the area for each animal per dose

| SMILES | AOC-MAP (Male Hartley guinea pigs; [2]) | AOC-MAP (Male Hartley guinea pigs; [3]) | AOC-MAP (Male Hartley guinea pigs; Table III, 3.0 mg/kg i.v., average of the area for each animal per dose) | AOC-MAP (Male Hartley guinea pigs; Table I, 0.3 mg/kg i.v., ΔMAP of all animals averaged per dose before calculating the area (trapezoidal)) | AOC-MAP (Male Hartley guinea pigs; [4]) | AOC-MAP (Male Hartley guinea pigs; Table I, 3.0 mg/kg i.v., ΔMAP of all animals averaged per dose before calculating the area) | AOC-MAP (Male Hartley guinea pigs; Table II, 0.3 mg/kg i.v., average of the area for each animal per dose) | AOC-MAP (Male Hartley guinea pigs; [5]) | AOC-MAP (Male Hartley guinea pigs; Table II, 3.0 mg/kg i.v., average of the area for each animal per dose) | hypotensive effect of captopril injected during H77 infusion [1] | AOC-MAP (Male Hartley guinea pigs; Table I, 0.03 mg/kg i.v., ΔMAP of all animals averaged per dose before calculating the area) | AOC-MAP (Male Hartley guinea pigs; Table I, 0.10 mg/kg i.v., ΔMAP of all animals averaged per dose before calculating the area) | AOC-MAP (Male Hartley guinea pigs; Table I, 0.30 mg/kg i.v., ΔMAP of all animals averaged per dose before calculating the area) | AOC-MAP (Male Hartley guinea pigs; Table II, 0.03 mg/kg i.v., average of the area for each animal per dose) | AOC-MAP (Male Hartley guinea pigs; Table II, 0.10 mg/kg i.v., average of the area for each animal per dose) | AOC-MAP (Male Hartley guinea pigs; Table II, 0.30 mg/kg i.v., average of the area for each animal per dose) | AOC-MAP (Male Hartley guinea pigs; Table III, 0.03 mg/kg i.v., average of the area for each animal per dose) | AOC-MAP (Male Hartley guinea pigs; Table III, 0.10 mg/kg i.v., average of the area for each animal per dose) |
| --- | --- | --- | --- | --- | --- | --- | --- | --- | --- | --- | --- | --- | --- | --- | --- | --- | --- | --- |
| CCCCc1nc(Cl)c(CO)n1Cc1ccc(-c2ccccc2-c2nn[nH]n2)cc1 [Dup 753] | −125 | −549 | −1575 |  |  |  |  |  |  |  |  |  |  |  |  |  |  |  |
| CSCC(NC(=O)C(Cc1ccccc1)NC(=O)N1CCOCC1)C(=O)NC(CC1CCCCC1)C(O)C(=O)OC(C)C (stereo not drawn) [RI, [alpha-R[alpha-R*,beta-S*(S*,S*)]-alpha-hydroxy-beta-[[2-[[2-(4-morpholin-1-carboxamido)-1-oxo-3-phenylpropyl]amino[-3-methylthio-1-oxo-propyl]amino]-cyclohexanebutanoic acid, isopropyl ester] |  |  |  | −256 | −496 | −1829 | −310 | −568 | −1990 |  |  |  |  |  |  |  |  |  |
| C[C@H](CS)C(=O)N1CCC[C@H]1C(=O)O [captopril] | −826 | −3272 |  |  | −3272 |  |  | −3272 |  | small additional hypotensive effect | −99 | −289 | −1263 | −96 | −283 | −1036 | −96 | −269 |
